In US9458110B2, “Phenylpyrazole derivatives as potent ROCK1 and ROCK2 inhibitors” (BRISTOL-MYERS SQUIBB COMPANY, priority 2013, dated 2016):

Legend:
ROCK1 = ROCK1 (Homo sapiens (Human), UniProt Q13464); experiment: ROCK assay (Caliper LABCHIP peptide phosphorylation), ROCK1; type: biochemical; conditions: 5 μM ATP, 1.5 μM peptide substrate;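 note: Read-out is separation of phosphorylated from unphosphorylated peptide, with kinase activity inhibition computed at every concentration of a dose-response series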
ROCK2 = ROCK2 (Homo sapiens (Human), UniProt O75116); experiment: ROCK assay (Caliper LABCHIP peptide phosphorylation), ROCK2; type: biochemical; conditions: 5 μM ATP, 1.5 μM peptide substrate;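 note: reaction stopped with EDTA, then phosphorylated and unphosphorylated peptide resolved by microfluidic electrophoresis, kinase inhibition computed at each compound concentration in dose-response series, DMSO under 2%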
Chain of ROCK2 (O75116 whole entry, species assumed): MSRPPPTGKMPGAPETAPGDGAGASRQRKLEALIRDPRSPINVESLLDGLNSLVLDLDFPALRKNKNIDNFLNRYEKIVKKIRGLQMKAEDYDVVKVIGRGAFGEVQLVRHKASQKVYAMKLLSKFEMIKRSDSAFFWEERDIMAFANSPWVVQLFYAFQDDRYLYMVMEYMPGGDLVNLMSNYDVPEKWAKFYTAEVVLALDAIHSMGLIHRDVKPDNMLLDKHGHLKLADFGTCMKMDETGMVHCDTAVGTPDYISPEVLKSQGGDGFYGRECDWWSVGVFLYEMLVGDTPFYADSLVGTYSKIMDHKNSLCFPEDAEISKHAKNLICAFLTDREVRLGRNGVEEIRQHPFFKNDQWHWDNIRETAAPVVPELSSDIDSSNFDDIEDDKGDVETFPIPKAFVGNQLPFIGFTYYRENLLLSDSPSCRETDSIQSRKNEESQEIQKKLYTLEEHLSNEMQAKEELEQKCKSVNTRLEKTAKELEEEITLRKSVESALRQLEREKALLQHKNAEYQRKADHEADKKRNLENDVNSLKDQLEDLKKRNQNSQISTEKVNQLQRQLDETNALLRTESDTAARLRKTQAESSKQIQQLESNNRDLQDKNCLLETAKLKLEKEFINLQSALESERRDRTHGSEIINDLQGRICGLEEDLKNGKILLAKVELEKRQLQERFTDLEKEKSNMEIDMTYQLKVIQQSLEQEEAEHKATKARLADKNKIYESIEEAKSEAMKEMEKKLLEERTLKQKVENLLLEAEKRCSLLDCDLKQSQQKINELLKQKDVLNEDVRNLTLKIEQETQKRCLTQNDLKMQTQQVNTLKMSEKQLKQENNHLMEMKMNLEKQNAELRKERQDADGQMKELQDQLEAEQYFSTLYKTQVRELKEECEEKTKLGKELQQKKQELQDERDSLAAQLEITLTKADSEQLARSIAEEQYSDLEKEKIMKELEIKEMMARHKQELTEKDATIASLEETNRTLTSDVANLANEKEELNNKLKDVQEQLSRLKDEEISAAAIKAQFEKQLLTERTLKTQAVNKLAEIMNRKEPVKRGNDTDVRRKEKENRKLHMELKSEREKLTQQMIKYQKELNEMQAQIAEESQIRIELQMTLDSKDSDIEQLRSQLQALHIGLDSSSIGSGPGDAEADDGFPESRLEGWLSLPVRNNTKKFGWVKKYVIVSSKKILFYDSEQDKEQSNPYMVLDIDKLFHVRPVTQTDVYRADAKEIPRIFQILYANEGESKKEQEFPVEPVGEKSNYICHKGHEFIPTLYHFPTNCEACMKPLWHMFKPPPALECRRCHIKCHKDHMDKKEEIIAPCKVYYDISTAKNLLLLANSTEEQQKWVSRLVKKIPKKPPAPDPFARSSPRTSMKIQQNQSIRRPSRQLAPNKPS

Chain of ROCK1 (Q13464 whole entry, species assumed): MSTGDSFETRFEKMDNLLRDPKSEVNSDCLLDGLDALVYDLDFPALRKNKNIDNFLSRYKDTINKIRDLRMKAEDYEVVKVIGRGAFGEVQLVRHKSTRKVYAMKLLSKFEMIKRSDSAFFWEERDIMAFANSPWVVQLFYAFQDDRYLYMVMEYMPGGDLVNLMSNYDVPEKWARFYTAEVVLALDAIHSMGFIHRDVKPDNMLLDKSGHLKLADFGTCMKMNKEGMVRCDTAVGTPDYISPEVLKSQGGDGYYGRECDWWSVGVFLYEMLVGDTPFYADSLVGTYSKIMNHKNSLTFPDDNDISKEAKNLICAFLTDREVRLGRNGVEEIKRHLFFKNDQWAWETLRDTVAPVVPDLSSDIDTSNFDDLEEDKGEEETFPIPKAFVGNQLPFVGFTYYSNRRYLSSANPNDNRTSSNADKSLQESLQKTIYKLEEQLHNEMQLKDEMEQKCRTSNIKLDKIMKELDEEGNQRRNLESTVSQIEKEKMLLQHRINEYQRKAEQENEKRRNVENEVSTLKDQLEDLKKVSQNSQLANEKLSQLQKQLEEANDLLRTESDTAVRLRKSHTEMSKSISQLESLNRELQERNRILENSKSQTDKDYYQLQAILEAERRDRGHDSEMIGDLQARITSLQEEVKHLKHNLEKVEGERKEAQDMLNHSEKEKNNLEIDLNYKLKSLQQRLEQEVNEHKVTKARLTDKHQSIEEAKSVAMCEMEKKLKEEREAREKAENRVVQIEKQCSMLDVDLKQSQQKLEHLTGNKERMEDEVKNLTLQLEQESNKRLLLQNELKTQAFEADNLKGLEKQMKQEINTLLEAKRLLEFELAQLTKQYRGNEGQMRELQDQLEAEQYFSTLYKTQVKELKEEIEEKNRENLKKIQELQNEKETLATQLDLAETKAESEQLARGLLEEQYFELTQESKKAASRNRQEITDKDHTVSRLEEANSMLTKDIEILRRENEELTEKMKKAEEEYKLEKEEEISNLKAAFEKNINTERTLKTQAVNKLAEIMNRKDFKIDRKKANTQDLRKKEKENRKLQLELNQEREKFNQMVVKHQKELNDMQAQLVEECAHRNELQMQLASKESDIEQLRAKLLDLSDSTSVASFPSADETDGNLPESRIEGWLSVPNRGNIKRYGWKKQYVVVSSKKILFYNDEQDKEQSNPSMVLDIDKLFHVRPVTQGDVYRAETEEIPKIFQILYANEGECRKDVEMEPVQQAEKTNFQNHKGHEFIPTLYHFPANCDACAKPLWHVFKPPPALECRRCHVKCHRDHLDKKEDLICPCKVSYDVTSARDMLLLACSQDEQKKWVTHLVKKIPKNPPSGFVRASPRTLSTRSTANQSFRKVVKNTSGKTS

Compound | IC50 (ROCK1) [nM] | IC50 (ROCK2) [nM]
C=C[C@@H](NC(=O)c1ccc(-c2cn[nH]c2)c(OC)c1)c1c(F)cccc1F [Example 170, N-[(1R)-1-(2,6-difluorophenyl)prop-2-en-1-yl]-3-methoxy-4-(1H-pyrazol-4-yl)benzamide] | 17.5 | 10.5
COc1cc(C(=O)N[C@@H](c2c(F)cccc2F)C(O)CO)ccc1-c1cn[nH]c1 (stereo partly drawn) [Example 175, N-[(1S)-1-(2,6-difluorophenyl)-2,3-dihydroxy-propyl]-3-methoxy-4-(1H-pyrazol-4-yl)benzamide] | 34.9 | 19.3
COc1cc(-c2c[nH]nc2C)ccc1C(=O)NCc1c(F)cccc1Cl [Example 184, N-[(2-chloro-6-fluorophenyl)methyl]-2-methoxy-4-(3-methyl-1H-pyrazol-4-yl)benzamide] | 14.2 | 101
COc1cc(-c2cn[nH]c2)ccc1C(=O)NCc1c(F)cccc1Cl [Example 185, N-[(2-chloro-6-fluorophenyl)methyl]-2-methoxy-4-(1H-pyrazol-4-yl)benzamide] | 26.3 | 6.48
COc1cc(-c2c[nH]nc2C(F)(F)F)ccc1C(=O)NCc1c(F)cccc1Cl [Example 189, N-[(2-chloro-6-fluorophenyl)methyl]-2-methoxy-4-[3-(trifluoromethyl)-1H-pyrazol-4-yl]benzamide] | 39.4 | 42.5
CCOc1cc(C(=O)N[C@H](CO)c2c(F)cccc2F)ccc1-c1cn[nH]c1 [Example 195, N-[(1S)-1-(2,6-difluorophenyl)-2-hydroxyethyl]-3-ethoxy-4-(1H-pyrazol-4-yl)benzamide] | 82.7 | 16
O=C(N[C@H](CO)c1c(F)cccc1F)c1ccc(-c2cn[nH]c2)c(OC(F)F)c1 [Example 196, 3-(difluoro-methoxy)-N-[(1S)-1-(2,6-difluorophenyl)-2-hydroxyethyl]-4-(1H-pyrazol-4-yl)benzamide] | 63.7 | 13.8
Cc1cc(C(=O)N[C@H](CO)c2c(F)cccc2F)ccc1-c1cn[nH]c1 [Example 197, N-[(1S)-1-(2,6-difluorophenyl)-2-hydroxyethyl]-3-methyl-4-(1H-pyrazol-4-yl)benzamide] | 52.6 | 17.6
N#Cc1cc(C(=O)N[C@H](CO)c2c(F)cccc2F)ccc1-c1cn[nH]c1 [Example 198, 3-cyano-N-[(1S)-1-(2,6-difluorophenyl)-2-hydroxyethyl]-4-(1H-pyrazol-4-yl)benzamide] | 397 | 140
COc1c(-c2cn[nH]c2)ccc(C(=O)N[C@H](CO)c2c(F)cccc2F)c1F [Example 199, N-[(1S)-1-(2,6-difluorophenyl)-2-hydroxyethyl]-2-fluoro-3-methoxy-4-(1H-pyrazol-4-yl)benzamide] | 219 | 21.6
O=C(N[C@H](CO)c1c(F)cccc1F)c1ccc(-c2cn[nH]c2)c(Cl)c1 [Example 200, 3-chloro-N-[(1S)-1-(2,6-difluorophenyl)-2-hydroxyethyl]-4-(1H-pyrazol-4-yl)benzamide] | 42.3 | 12.3
COc1cc(-c2cn[nH]c2)ccc1C(=O)N[C@H](CO)c1c(F)cccc1F [Example 201, N-[(1S)-1-(2,6-difluorophenyl)-2-hydroxyethyl]-2-methoxy-4-(1H-pyrazol-4-yl)benzamide] | 362 | 11.5
O=C(N[C@H](CO)c1c(F)cccc1F)c1ccc(-c2cn[nH]c2)c(C(F)(F)F)c1 [Example 202, N-[(1S)-1-(2,6-difluorophenyl)-2-hydroxyethyl]-4-(1H-pyrazol-4-yl)-3-(trifluoromethyl) benzamide] | 193 | 55.7
COc1ccc(F)c(C(C)NC(=O)c2ccc(-c3cn[nH]c3)cc2OC)c1 (stereo not drawn) [Example 203, N-[1-(2-fluoro-5-methoxyphenyl)ethyl]-2-methoxy-4-(1H-pyrazol-4-yl)benzamide] | 19.2 | 6.66
COc1cc(-c2cn[nH]c2)ccc1C(=O)N[C@H](CO)Cc1ccccc1 [Example 204, N-[(2S)-1-hydroxy-3-phenylpropan-2-yl]-2-methoxy-4-(1H-pyrazol-4-yl)benzamide] | 9.8 | 15.2
COc1cc(-c2cn[nH]c2)ccc1C(=O)NC(CO)c1ccccc1F (stereo not drawn) [Example 205, N-[1-(2-fluorophenyl)-2-hydroxyethyl]-2-methoxy-4-(1H-pyrazol-4-yl)benzamide] | 345 | 5.62
COc1cc(-c2cn[nH]c2)ccc1C(=O)N[C@H](C)c1ccc(F)cc1 [Example 206, N-[(1R)-1-(4-fluorophenyl)ethyl]-2-methoxy-4-(1H-pyrazol-4-yl) benzamide] | 7 | 2.77
COc1cc(-c2cn[nH]c2)ccc1C(=O)NCc1c(F)cccc1F [Example 207, N-[(2,6-difluorophenyl)methyl]-2-methoxy-4-(1H-pyrazol-4-yl)benzamide] | 4.25 | 4.39
COc1cc(-c2cn[nH]c2)ccc1C(=O)NC(CCN(C)C)c1ccccc1 (stereo not drawn) [Example 208, N-[3-(dimethylamino)-1-phenylpropyl]-2-methoxy-4-(1H-pyrazol-4-yl)benzamide] | 174 | 15.2
COc1cc(-c2cn[nH]c2)ccc1C(=O)N[C@H](CCO)c1ccccc1 [Example 209, N-[(1R)-3-hydroxy-1-phenylpropyl]-2-methoxy-4-(1H-pyrazol-4-yl)benzamide] | 6.55 | 2.78
COc1cc(-c2cn[nH]c2)ccc1C(=O)NCc1ccc(F)cc1Cl [Example 210, N-[(2-chloro-4-fluorophenyl)methyl]-2-methoxy-4-(1H-pyrazol-4-yl)benzamide] | 3.26 | 1.75
O=C(NCc1ccccc1)c1ccc(-c2cn[nH]c2)cc1CCO [Example 211, N-benzyl-2-(2-hydroxyethyl)-4-(1H-pyrazol-4-yl) benzamide] | 1880 | 6510
COc1cc(-c2cn[nH]c2)ccc1C(=O)NC(c1ccccc1F)C(C)(C)O (stereo not drawn) [Example 212, N-[1-(2-fluorophenyl)-2-hydroxy-2-methylpropyl]-2-methoxy-4-(1H-pyrazol-4-yl)benzamide] | 37.3 | 7.32

More lines, now with the values ahead:

IC50 (ROCK1) [nM] | IC50 (ROCK2) [nM] | Compound
7.22 | 2.17 | COc1cc(C(=O)NC(CO)c2ccccc2F)ccc1-c1cn[nH]c1 (stereo not drawn) [Example 166, N-[1-(2-fluorophenyl)-2-hydroxyethyl]-3-methoxy-4-(1H-pyrazol-4-yl)benzamide]
56.5 | 16.7 | COc1cc(C(=O)NC(CO)c2ccccc2F)ccc1-c1cn[nH]c1 (stereo not drawn) [Example 167, N-[1-(2-fluorophenyl)-2-hydroxyethyl]-3-methoxy-4-(1H-pyrazol-4-yl)benzamide]
130 | 46.7 | Cc1cc(C(=O)NC(C)c2cccc(O)n2)ccc1-c1cn[nH]c1 (stereo not drawn) [Example 168, N-[1-(6-hydroxypyridin-2-yl)ethyl]-3-methyl-4-(1H-pyrazol-4-yl)benzamide]
4.7 | 1.93 | COc1cc(C(=O)NC(CCN(C)C)c2ccccc2)ccc1-c1cn[nH]c1 (stereo not drawn) [Example 169, N-[3-(dimethylamino)-1-phenylpropyl]-3-methoxy-4-(1H-pyrazol-4-yl)benzamide]
94.2 | 31.9 | COc1cc(C(=O)NC(CCN(C)C)c2ccccc2)ccc1-c1cn[nH]c1 (stereo not drawn) [Example 178, N-[3-(dimethylamino)-1-phenylpropyl]-3-methoxy-4-(1H-pyrazol-4-yl)benzamide]
1.53 | 7.75 | COc1cc(C(=O)NC(CCN(C)C)c2ccccc2)ccc1-c1cn[nH]c1 (stereo not drawn) [Example 179, N-[3-(dimethylamino)-1-phenylpropyl]-3-methoxy-4-(1H-pyrazol-4-yl)benzamide]
36.4 | 15.3 | CCc1ccccc1CNC(=O)c1ccc(-c2cn[nH]c2)c(OC)c1 [Example 180, N-[(2-ethylphenyl)methyl]-3-methoxy-4-(1H-pyrazol-4-yl)benzamide]
2.22 | 7.68 | C[C@@H](NC(=O)c1ccc(-c2cn[nH]c2)c(O)c1)c1ccc(F)cc1 [Example 183, N-[(1R)-1-(4-fluorophenyl)ethyl]-3-hydroxy-4-(1H-pyrazol-4-yl)benzamide]
472 | 190 | C[C@@H](NC(=O)c1cc(F)c(-c2cn[nH]c2)cc1F)c1ccccc1 [Example 186, 2,5-difluoro-N-[(1R)-1-phenylethyl]-4-(1H-pyrazol-4-yl)benzamide]
23 | 14 | COc1cc(C(=O)NC(Cc2ccccc2)C(C)=O)ccc1-c1cn[nH]c1 (stereo not drawn) [Example 187, 3-methoxy-N-(3-oxo-1-phenylbutan-2-yl)-4-(1H-pyrazol-4-yl)benzamide]
> 2000 | 208 | C[C@@H](NC(=O)c1ccc(-c2cn[nH]c2)c(S(C)(=O)=O)c1)c1ccccc1 [Example 188, 3-methanesulfonyl-N-[(1R)-1-phenylethyl]-4-(1H-pyrazol-4-yl)benzamide]
37.1 | 16.7 | COc1cc(-c2cn[nH]c2)c(F)cc1C(=O)N[C@H](C)c1ccccc1 [Example 190, 5-fluoro-2-methoxy-N-[(1R)-1-phenylethyl]-4-(1H-pyrazol-4-yl)benzamide]
205 | 74.6 | CCOc1cc(C(=O)N[C@H](C)c2ccc(F)cc2)ccc1-c1cn[nH]c1 [Example 191, 3-ethoxy-N-[(1R)-1-(4-fluorophenyl)ethyl]-4-(1H-pyrazol-4-yl)benzamide]
50.8 | 11.4 | CCOc1cc(C(=O)N[C@H](CO)c2ccccc2)ccc1-c1cn[nH]c1 [Example 192, 3-ethoxy-N-[(1S)-2-hydroxy-1-phenylethyl]-4-(1H-pyrazol-4-yl)benzamide]
873 | 289 | C[C@@H](NC(=O)c1ccc(-c2cn[nH]c2)c(C#N)c1)c1ccc(F)cc1 [Example 193, 3-cyano-N-[(1R)-1-(4-fluorophenyl)ethyl]-4-(1H-pyrazol-4-yl)benzamide]
510 | 152 | N#Cc1cc(C(=O)N[C@H](CO)c2ccccc2)ccc1-c1cn[nH]c1 [Example 194, 3-cyano-N-[(1S)-2-hydroxy-1-phenylethyl]-4-(1H-pyrazol-4-yl)benzamide]
